Read-outs that look alike come from different tables or passages of the source.
Experiments:
[1] = Log P, partition between n-octanol and PBS; assay type: physicochemical; conditions: partition coefficient between 1-octanol and PBS
Method: 400 μL portion of n-octanol and 400 μL of PBS buffer were mixed in a plastic Eppendorf vial. Then, 20 μL of the 100 μM stock solution of the sample (see above) was added to this mixture, vortexed for 5 min at rt, and then centrifuged for 10 min (10 000 rpm, rt). 50 μL of each of these layers was taken into 2.5 mL of DMF in a quartz cuvette, and their emission spectra (excitation wavelengths in Table ) were recorded. The log P value was then computed using the area under the curve of the emission spectra of n-octanol (F oct) and PBS buffer (F PBS) layers as follows: logP=log(Foct/FPBS) Triplicate measurements were performed, and the data reported are the mean of the obtained results.

[2] = Fluorescence lifetime in DMF; assay type: physicochemical
Source text: 1 Photophysical Data of Investigated Derivatives in DMF ^a | column: τF1/ns; τF2/ns

[3] = system: MCF-7 (human breast adenocarcinoma); set-up: method as in number not printed in Table 2; conditions: 12 h incubation, Xe-lamp 15 min, λ > 570 nm, 11.2 J/cm^2; mean ± SD; determined previously under the same conditions at the same workplace and published; ref number not given; cited from earlier work
[4] = system: HeLa (human cervical carcinoma); conditions: 12 h incubation, Xe-lamp 15 min, λ > 570 nm, 11.2 J/cm^2; mean ± SD; determined previously under the same conditions at the same workplace and published; ref number not given; read-out: EC50 (nM) HeLa; cited from earlier work
[5] = Quantum yield of singlet oxygen production, comparative method with DPBF scavenger; assay type: physicochemical; conditions: in DMF, ZnPc as reference
Method: Eight μL of the 100 μM stock solution of the dye in DMF (or DMF + water or water; see above) was added. A xenon lamp (100 W, ozone free XE DC short arc lamp, New port) was used to irradiate the sample while stirring. The incident light was filtered through a water filter (6 cm) and cut off filter OG530 eliminating heat and light under 523 nm, respectively. […] The decrease of DPBF in solution with irradiation time was monitored at 415 nm. The values of ΦΔ of the dyes were calculated by the following equation: φΔS=φΔ[…] is the slope of the plot of the dependence of ln([…] 0 and A t being the absorbances of the DPBF at 415 nm before irradiation and after irradiation time t, respectively. I aT is the total amount of light absorbed by the dye sample. Superscripts R and S indicate the reference and sample, respectively. I aT is calculated as a sum of intensities of the absorbed light I a at wavelengths from 523 to 850 nm (step 0.5 nm). Light under 523 nm is completely filtered by an OG530 filter, and light above 850 nm is not absorbed by the studied dye sample. I a at a given wavelength is calculated using Beer-Lambert'[…]) where I 0 is transmittance of the filter at the given wavelength and A is the absorbance of the dye at this wavelength. All experiments were performed three times, and the data presented is the mean value of the three obtained results with estimated error ± 10%.

[6] = system: SK-MEL-28 (human skin melanoma); assay: Photodynamic activity (phototoxicity, neutral red uptake) on SK-MEL-28; assay type: cell-based; conditions: 12 h incubation, Xe-lamp 15 min, λ > 570 nm, 11.2 J/cm^2, mean ± SD, t.w. = this work
Method: (§1) Detailed in vitro studies involving subcellular localization and determination of the EC50 in three different cell lines (human cervical carcinoma–HeLa, human breast adenocarcinoma–MCF-7, and human skin melanoma–SK-MEL-28) were performed. A broadband light source (ozone-free 450 W Xe-lamp, Newport) equipped with the long-pass filter Schott OG570 was used (12.4 mW/cm^2, 15 min, 11.2 J/cm^2).
(§2) For the cytotoxicity experiments (phototoxicity), cells were seeded at 100 μL per well into 96-well plates (TPP, Switzerland) at a density of 7.5 × 10^3 (HeLa) or 1.0 × 10^4 (MCF-7 and SK-MEL-28) cells per well. Cells were left to grow for 24 h (until they reached confluency) in a controlled environment of a CO2 incubator (37 °C, 5% CO2 atmosphere, constant high humidity). Subsequently, studied compounds were added in a wide concentration range and incubated with the cells for 12 h. Cells were washed; fresh cell culture medium was added, and the cells were irradiated using a 450 W Xe lamp (Newport, USA). The lamp was equipped with a long pass filter (Newport OG570) and an 8 cm water filter (λ > 570 nm, 12.4 mW/cm^2, 15 min, 11.2 J/cm^2). Cellular viability was assessed after an additional 24 h by the neutral red (NR; Sigma, Merck, USA) uptake assay. At least three independent experiments, each in triplicate, were performed. The soluble NR was measured at λ = 540 nm using a Tecan Infinite 200 M plate reader (Tecan, Austria). The viability of each experimental group was expressed as the percentage of the untreated cells (100% viability) after subtraction of the signal from cells treated with a lethal dose of hydrogen peroxide (0% viability). […] EC50 values were calculated, and graphs were created by using GraphPad Prism 10.3.1 (Graph Pad software, USA).

[7] = Absorption and fluorescence emission spectra in DMF; assay type: physicochemical; conditions: in DMF
Method: An absorption spectrum of 2.475 mL of solvent (water, DMF, or PBS) was taken (i.e., absorption spectrum of baseline); then, 25 μL of stock solution was added to reach the final concentration of 1 μM in the cuvette, and the absorption and emission spectra were taken. Baseline of the solvent was subtracted from the obtained absorption spectrum to get the final absorption spectrum of the sample.

[8] = Fluorescence quantum yield, comparative method; assay type: physicochemical; conditions: in DMF; ZnPc as reference
Method: The fluorescence quantum yields (ΦF) were determined by a comparative method with ZnPc as the reference (ΦF = 0.32 in THF). The ΦF values were calculated using the following formula: ϕFS=ϕFR(F^S/F^R)(1−10^−A^R/1−10^−A^S)(η^S/η^R)^2 where F is the integrated area under the emission spectrum and A is the absorbance at the excitation wavelength. Superscripts R and S indicate the reference and sample, respectively. η stands for the refractive index of the solvent. Absorption in the Q-band was kept below 0.05 to eliminate the inner filter effect. Excitation wavelengths were the same as those used for emission spectra (see above). The emission wavelengths were set to their emission maxima to avoid exceeding the detector limit with stimated error ± 15%.

[9] = biological target: bovine serum albumin (BSA) (Bos taurus, UniProt P02769); assay: Interaction with bovine serum albumin (absorption and emission spectra in PBS); assay type: binding; conditions: 1 μM Pc in PBS, BSA 17.5, 35 and 100 μM
[10] = system: HeLa (human cervical carcinoma); assay: Photodynamic activity (phototoxicity, neutral red uptake) on HeLa; assay type: cell-based; conditions: HeLa
Method: as §1, §2

[11] = system: MCF-7 (human breast adenocarcinoma); assay: Photodynamic activity (phototoxicity, neutral red uptake) on MCF-7; assay type: cell-based; conditions: Homo sapiens, MCF7, light or radiation study; 12 h incubation, Xe-lamp 15 min, λ > 570 nm, 11.2 J/cm^2; mean ± SD; t.w. = this work
Method: as §1, §2

Chain of bovine serum albumin (BSA) (P02769 25-607): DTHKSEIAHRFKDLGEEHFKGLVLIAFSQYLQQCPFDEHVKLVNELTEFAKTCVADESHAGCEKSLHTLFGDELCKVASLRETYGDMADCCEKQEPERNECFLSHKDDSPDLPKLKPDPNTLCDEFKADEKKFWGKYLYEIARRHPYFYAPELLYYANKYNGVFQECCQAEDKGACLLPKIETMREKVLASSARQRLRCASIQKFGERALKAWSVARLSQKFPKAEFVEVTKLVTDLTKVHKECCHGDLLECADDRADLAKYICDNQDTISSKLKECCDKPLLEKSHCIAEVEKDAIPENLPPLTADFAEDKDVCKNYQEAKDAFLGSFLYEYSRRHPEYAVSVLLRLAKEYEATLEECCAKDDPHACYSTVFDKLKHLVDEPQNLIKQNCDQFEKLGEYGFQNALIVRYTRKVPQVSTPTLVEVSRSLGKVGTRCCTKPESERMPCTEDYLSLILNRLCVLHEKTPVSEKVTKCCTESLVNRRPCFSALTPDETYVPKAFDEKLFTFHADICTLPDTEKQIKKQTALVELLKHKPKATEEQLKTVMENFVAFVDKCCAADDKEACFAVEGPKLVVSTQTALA

| logP ([1]; n-octanol/PBS buffer) | SMILES | Log P [1] | τF1, fluorescence lifetime (relative amplitude in brackets) [2] | τF2, fluorescence lifetime (relative amplitude in brackets) [2] | EC50 [3] [nM] | EC50 [4] [nM] | ΦΔ, quantum yield of singlet oxygen production [5] | EC50 [6] [nM] | ε, extinction coefficient [7] | λA, absorption maximum in the Q-band [7] [nm] | λF, fluorescence emission maximum [7] [nm] | ΦF, fluorescence quantum yield [8] | Interaction with BSA: disaggregation/monomerization and changes in absorption and fluorescence emission spectra [9] | fold higher photodynamic activity vs symmetrical hydrophilic counterparts ([10]; unsymmetrical anionic A1Zn, A2Zn vs A3Zn, A4Zn) | EC50 [11] [nM] | EC50 ([6]; Homo sapiens, SK-MEL-28, light or radiation study) [nM] | EC50 ([10]; Homo sapiens, light or radiation study, 12 h incubation, Xe-lamp 15 min, λ > 570 nm, 11.2 J/cm^2, mean ± SD, t.w. = this work) [nM] |
| --- | --- | --- | --- | --- | --- | --- | --- | --- | --- | --- | --- | --- | --- | --- | --- | --- | --- |
| – | Cc1cc(Cn2c[n+](C)cn2)c(Oc2cc3c(cc2Oc2c(Cn4c[n+](C)cn4)cc(C)cc2Cn2c[n+](C)cn2)C2=Nc4c5cc(Oc6c(Cn7c[n+](C)cn7)cc(C)cc6Cn6c[n+](C)cn6)c(Oc6c(Cn7c[n+](C)cn7)cc(C)cc6Cn6c[n+](C)cn6)cc5c5[n]4[Zn][n]4c(c6cc(Oc7c(Cn8c[n+](C)cn8)cc(C)cc7Cn7c[n+](C)cn7)c(Oc7c(Cn8c[n+](C)cn8)cc(C)cc7Cn7c[n+](C)cn7)cc6c4=NC4=NC(=N5)c5cc(Oc6c(Cn7c[n+](C)cn7)cc(C)cc6Cn6c[n+](C)cn6)c(Oc6c(Cn7c[n+](C)cn7)cc(C)cc6Cn6c[n+](C)cn6)cc54)=NC3=N2)c(Cn2c[n+](C)cn2)c1.[I-].[I-].[I-].[I-].[I-].[I-].[I-].[I-].[I-].[I-].[I-].[I-].[I-].[I-].[I-].[I-] [C13Zn] | –3.47 | 0.60 (4%) ns | 2.27 (96%) ns | 5.3 ± 0.8 | 12 ± 4 | 0.37 | 56 ± 6 | 236 490 M^–1cm^–1 | 679 | 687 | 0.20 | – | – | – | – | – |
| – | O=C([O-])c1cc(Oc2cc3c(cc2Oc2cc(C(=O)[O-])cc(C(=O)[O-])c2)C2=Nc4c5ccccc5c5[n]4[Zn][n]4c(c6ccccc6c4=NC3=N2)=NC2=NC(=N5)c3ccccc32)cc(C(=O)[O-])c1.[Na+].[Na+].[Na+].[Na+] [A1Zn] | –2.70 | 0.44 (15%) ns | 2.51 (85%) ns | 453 ± 26 | 290 ± 78 | 0.26 | 530 ± 30 | – | – | 682 | 0.035 | complete | ~21 | – | – | – |
| – | CSc1cc2c(cc1SC)C1=Nc3c4cc(SC)c(SC)cc4c4[n]3[Zn][n]3c(c5cc(SC)c(SC)cc5c3=NC2=N1)=NC1=NC(=N4)c2cc(Oc3c(Cn4cc[n+](C)c4)cc(C)cc3Cn3cc[n+](C)c3)c(Oc3c(Cn4cc[n+](C)c4)cc(C)cc3Cn3cc[n+](C)c3)cc21.[I-].[I-].[I-].[I-] [C4Zn] | 0.62 | – | – | 61 ± 9 | 79 ± 20 | 0.44 | 108 ± 24 | 106 360 M^–1cm^–1 | 697 | 709 | 0.21 | – | – | – | – | – |
| – | Cc1cc(Cn2cc[n+](C)c2)c(Oc2c3c(c(C)c(C)[n+]2C)C2=NC3=Nc3c4cc(SC(C)(C)C)c(SC(C)(C)C)cc4c4[n]3[Zn][n]3c(c5cc(SC(C)(C)C)c(SC(C)(C)C)cc5c3=N2)=NC2=NC(=N4)c3cc(SC(C)(C)C)c(SC(C)(C)C)cc32)c(Cn2cc[n+](C)c2)c1.[I-].[I-].[I-] [C2Zn] | 1.38 | 1.67 ns | – | 65 ± 8 | 105 ± 34 | 0.70 | 62 ± 11 | 177 880 M^–1cm^–1 | 708 | 718 | 0.30 | – | – | – | – | – |
| -1.35 | O=S(=O)([O-])c1ccc2c(c1)-c1nc-2nc2[nH]c(nc3nc(nc4[nH]c(n1)c1ccccc41)-c1ccc(S(=O)(=O)[O-])cc1-3)c1ccc(S(=O)(=O)[O-])cc21.[Na+].[Na+].[Na+] [A9H] | – | 1.97 (18%) ns | 3.87 (82%) ns | – | – | 0.19 | – | 104 650 M^–1cm^–1 | – | 703 | 0.22 | partial | – | 347 ± 125 | 300 ± 77 | 85 ± 7 |
